Data: patent US20220056019A1, “FARNESOID X RECEPTOR AGONISTS AND USES THEREOF” (Metacrine, Inc., priority 2018, published 2022)

These compounds were tested against T1, hFXR (Homo sapiens, UniProt Q96RI1) (assay: In Vitro FXR Assay (TK): TK-ECRE-luc reporter in transfected CV-1 cells). Conditions: 18 hrs incubation, luminescence.
T1 construct: expressed in transfected cells; host or cells: CV-1 cells
T1 sequence (Q96RI1 1-486): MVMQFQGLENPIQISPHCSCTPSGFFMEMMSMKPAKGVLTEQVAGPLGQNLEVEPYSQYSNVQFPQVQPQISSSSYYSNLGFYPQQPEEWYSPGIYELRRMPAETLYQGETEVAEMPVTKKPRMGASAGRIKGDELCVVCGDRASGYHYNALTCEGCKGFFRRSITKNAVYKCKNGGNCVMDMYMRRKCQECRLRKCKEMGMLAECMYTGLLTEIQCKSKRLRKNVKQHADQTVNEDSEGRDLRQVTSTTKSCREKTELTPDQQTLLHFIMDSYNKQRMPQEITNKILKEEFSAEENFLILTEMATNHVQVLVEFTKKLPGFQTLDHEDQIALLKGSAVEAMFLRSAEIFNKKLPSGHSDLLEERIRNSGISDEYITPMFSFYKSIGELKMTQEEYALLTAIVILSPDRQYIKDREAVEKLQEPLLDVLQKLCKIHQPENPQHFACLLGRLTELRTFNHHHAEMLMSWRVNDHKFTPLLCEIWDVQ
T1 sequence (P19793 1-462 partner): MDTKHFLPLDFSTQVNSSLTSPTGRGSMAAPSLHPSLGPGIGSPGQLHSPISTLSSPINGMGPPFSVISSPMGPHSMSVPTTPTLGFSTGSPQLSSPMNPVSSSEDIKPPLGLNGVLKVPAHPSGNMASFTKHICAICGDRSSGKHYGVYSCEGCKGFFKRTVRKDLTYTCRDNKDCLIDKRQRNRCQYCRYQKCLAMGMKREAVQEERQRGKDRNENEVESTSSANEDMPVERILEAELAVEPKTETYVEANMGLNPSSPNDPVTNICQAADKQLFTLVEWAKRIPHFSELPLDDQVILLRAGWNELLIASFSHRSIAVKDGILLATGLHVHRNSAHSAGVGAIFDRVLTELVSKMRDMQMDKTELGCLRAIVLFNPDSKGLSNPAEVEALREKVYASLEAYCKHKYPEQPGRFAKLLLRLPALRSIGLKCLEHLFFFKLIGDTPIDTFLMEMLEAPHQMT
Type: cell-based
How it was run: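 Luciferase read-out from lysed CV-1 cells carrying transfected hFXR, hRXR, TK-ECRE-luc and pCMX-YFP. Test compounds, DMSO serial dilutions, were incubated with the cells for 18 h before lysis. Cells grew in charcoal-stripped serum medium.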

`COc1ccc(C23CCC(CN(c4cc(-c5coc(C6CC6)n5)ccn4)C(=O)[C@H]4CC[C@H](OC(=O)N5CC(CO)C5)CC4)(CC2)CC3)cc1C` [Compound 4.31, 4-((4-(2-Cyclopropyloxazol-4-yl)pyridin-2-yl)((4-(4-methoxy-3-methylphenyl)bicyclo[2.2.2]octan-1-yl)methyl)carbamoyl)(trans-cyclohexyl) 3-(hydroxymethyl)azetidine-1-carboxylate] and `COc1ccc(C23CCC(CN(c4cc(-c5cnn(C(C)C)c5)ccn4)C(=O)[C@H]4CC[C@H](OC(=O)N5CC(CO)C5)CC4)(CC2)CC3)cc1C` [Compound 4.09, 4-((4-(1-Isopropyl-1H-pyrazol-4-yl)pyridin-2-yl)((4-(4-methoxy-3-methylphenyl)bicyclo [2.2.2]octan-1-yl)methyl)carbamoyl)cyclohexyl 3-(hydroxymethyl) azetidine-trans-1-carboxylate] cannot be ordered by EC50: ≤ 50 nM for the first, ≤ 50 nM for the second.

`COc1ccc(C23CCC(CN(c4cc(-c5cnn(C(C)C)c5)ccn4)C(=O)[C@H]4CC[C@H](OC(=O)N5CC(O)C5)CC4)(CC2)CC3)cc1F` [Compound 26.08, 4-(((4-(3-Fluoro-4-methoxyphenyl)bicyclo[2.2.2]octan-1-yl)methyl)(4-(1-isopropyl-1H-pyrazol-4-yl)pyridin-2-yl)carbamoyl)cyclohexyl trans-3-hydroxyazetidine-1-carboxylate] and `COc1ccc(C23CCC(CN(c4cc(-c5cnn(C(C)C)c5)ncn4)C(=O)[C@H]4CC[C@H](OC(=O)N5CC(C#N)C5)CC4)(CC2)CC3)cc1C` [Compound 23.22, 4-((6-(1-Isopropyl-1H-pyrazol-4-yl)pyrimidin-4-yl)((4-(4-methoxy-3-methylphenyl)bi-cyclo[2.2.2]octan-1-yl)methyl)carbamoyl(trans-cyclohexyl) 3-cyanoazetidine-1-carboxylate] cannot be ordered by EC50: ≤ 50 nM for the first, 50 to 1000 nM for the second.

`CCn1cc(-c2ccnc(N(C[C@H]3CC[C@H](c4ccc(OC)c(C)c4)CC3)C(=O)[C@H]3CC[C@H](OC(=O)N4CC(O)C4)CC3)c2)cn1` [Compound 2.22, trans-4-((4-(1-Ethyl-1H-pyrazol-4-yl)pyridin-2-yl) ((trans-4-(4-methoxy-3-methylphenyl)cyclohexyl)methyl)carbamoyl) cyclohexyl3-hydroxyazetidine-1-carboxylate] and `COc1ccc([C@H]2CC[C@H](CN(c3cc(-c4cnn(C(C)C)c4)ccn3)C(=O)[C@H]3CC[C@H](OC(=O)N4CC(S(C)(=O)=O)C4)CC3)CC2)cc1C` [Compound 2.12, trans-4-((4-(1-Isopropyl-1H-pyrazol-4-yl)pyridin-2-yl)(((trans)-4-(4-methoxy-3-methylphenyl)cyclohexyl)methyl)carbamoyl) cyclohexyl 3-(methylsulfonyl)azetidine-1-carboxylate] cannot be ordered by EC50: ≤ 50 nM for the first, ≤ 50 nM for the second.

`COc1ccc([C@H]2CC[C@H](CN(c3cccc(-c4cnn(C(C)C)c4)c3)C(=O)[C@H]3CC[C@H](CNC(=O)OCCO)CC3)CC2)cc1C` [Compound 12.06, 2-Hydroxyethyl (((trans)-4-((3-(1-isopropyl-1H-pyrazol-4-yl)phenyl)(((trans)-4-(4-methoxy-3-methylphenyl)cyclohexyl)methyl)carbamoyl)cyclohexyl)methyl)car-bamate] and `CCC(=O)NC[C@H]1CC[C@H](C(=O)N(C[C@H]2CC[C@H](c3ccc(OC)c(C)c3)CC2)c2cccc(-c3cnn(C(C)C)c3)c2)CC1` [Compound 12.01, (trans)-N-(3-(1-Isopropyl-1H-pyrazol-4-yl)phenyl)-N-(((trans)-4-(4-methoxy-3-methylphenyl)cyclohexyl)methyl)-4-(propionamidomethyl)cyclohexane-carboxamide] cannot be ordered by EC50: ≤ 50 nM for the first, 50 to 1000 nM for the second.

`CC(C)c1ccc(C23CCC(CN(c4cncc(-c5cnn(C(C)C)c5)n4)C(=O)[C@H]4CC[C@H](OC(=O)N5CC(O)C5)CC4)(CC2)CC3)cc1` [Compound 4.63, 4-((6-(1-Isopropyl-1H-pyrazol-4-yl)pyrazin-2-yl) ((4-(4-isopropylphenyl)bicyclo[2.2.2]octan-1-yl)methyl)carbamoyl)(trans-cyclohexyl) 3-hydroxyazetidine-1-carboxylate] and `COc1ccc(C23CCC(CN(c4cc(-c5cnn(C6CCC6)c5)ncn4)C(=O)[C@H]4CC[C@H](OC(=O)N5CC(CO)C5)CC4)(CC2)CC3)cc1C` [Compound 23.24] cannot be ordered by EC50: ≤ 50 nM for the first, ≤ 50 nM for the second.

`COc1ccc([C@H]2CC[C@H](CN(c3cccc(-c4cnn(C(C)C)c4)c3)C(=O)[C@H]3CC[C@H](OC(=O)NCC(C)(C)O)CC3)CC2)cc1C#N` [Compound 5.09, trans-4-((((trans)-4-(3-Cyano-4-methoxyphenyl)cyclohexyl)methyl)(3-(1-isopropyl-1H-pyrazol-4-yl)phenyl)carbamoyl) cyclohexyl(2-hydroxy-2-methylpropyl)carbamate] and `COc1ccc([C@H]2CC[C@H](CN(c3cc(-c4cnc(C(C)C)s4)ccn3)C(=O)[C@H]3CC[C@H](OC(=O)NCC(C)(C)O)CC3)CC2)cc1C` [Compound 2.10, trans-4-((4-(2-Isopropylthiazol-5-yl)pyridin-2-yl)((trans-4-(4-methoxy-3-methylphenyl)cyclohexyl)methyl)carbamoyl) cyclohexyl(2-hydroxy-2-methylpropyl)carbamate] cannot be ordered by EC50: ≤ 50 nM for the first, ≤ 50 nM for the second.

`COc1ccc(C23CCC(CN(c4cc(-c5cnn(C6(C)CCC6)c5)ccn4)C(=O)[C@H]4CC[C@H](OC(=O)N5CC(CO)C5)CC4)(CC2)CC3)cc1C` [Compound 25.21, 4-(((4-(4-Methoxy-3-methylphenyl)bicyclo[2.2.2]octan-1-yl)methyl)(4-(1-(1-methylcyclobutyl)-1H-pyrazol-4-yl)pyridin-2-yl)carbamoyl)(trans-cyclohexyl) 3-(hydroxymethyl)azetidine-1-carboxylate] and `COc1ccc(C23CCC(CN(c4cc(-c5cnn(C(C)C)c5)ccn4)C(=O)[C@H]4CC[C@H](NC(=O)OC5CCOCC5)CC4)(CC2)CC3)cc1C` [Compound 7.03, (trans)-Tetrahydro-2H-pyran-4-yl (4-((4-(1-isopropyl-1H-pyrazol-4-yl)pyridin-2-yl)((4-(4-methoxy-3-methylphenyl)bicyclo[2.2.2]octan-1-yl)methyl)carbamoyl)cyclohexyl) carbamate] cannot be ordered by EC50: ≤ 50 nM for the first, ≤ 50 nM for the second.

`COc1ccc(C23CCC(CN(c4cc(-c5cnn(C(C)C)c5)ccn4)C(=O)[C@H]4CC[C@H](NC(=O)OC5COC5)CC4)(CC2)CC3)cc1C` [Compound 7.02, (trans)-Oxetan-3-yl (4-((4-(1-isopropyl-1H-pyrazol-4-yl)pyridin-2-yl)((4-(4-methoxy-3-methylphenyl)bicyclo[2.2.2]octan-1-yl)methyl)carbamoyl)cyclohexyl) carbamate] and `COc1ncc([C@H]2CC[C@H](CN(c3cc(-c4coc(C5CC5)n4)ccn3)C(=O)[C@H]3CC[C@H](OC(=O)N4CCN(C)CC4)CC3)CC2)cc1C` [Compound 1.03, trans-4-((4-(2-Cyclopropyloxazol-4-yl)pyridin-2-yl)(((trans)-4-(6-methoxy-5-methylpyridin-3-yl)cyclohexyl)methyl)carbamoyl)cyclohexyl 4-methylpiperazine-1-carboxylate] cannot be ordered by EC50: ≤ 50 nM for the first, ≤ 50 nM for the second.
